Data: publication PMC12655351, “Synthesis and Anticancer Activity Evaluation of New 5-((5-Nitrofuran-2-yl)allylidene)-2-thioxo-4-thiazolidinones” (Pharmaceuticals, 2025)
Several values for one entry are separate records, joined by “and”; a condition that tells them apart may be missing. Identical values can stand only once. Like-named read-outs stand apart in the source and are kept apart here.

Experiments:
RPMI-8226 = assay: cells; settings: Homo sapiens, RPMI-8226, 48 h
NCI-H266 = assay: NCI-60 SRB screen; settings: for GI50 / TGI: NCI-H266, 48 h; for CC50: read-out: LC50, NCI-H266, 48 h
MCF-7 = assay: [3H]-thymidine incorporation assay; assay type: cell-based; settings: Homo sapiens, MCF7; MCF-7, 24 h of treatment
Experimental: (§1) Another method of assessing the cytotoxic effects of tested compounds, [^3H]-thymidine incorporation assay, was applied. This method provided the capability to analyze the antiproliferative activity of novel structures on MCF-7 and MDA-MB-231 through their ability to incorporate thymidine into the cells. The acquired results further confirmed the potent activity of the 14b compound as the most prominent structure among the novel compounds (Table 2). The test was carried out in triplicate at concentrations of 5, 15, and 30 μM for the MDA-MB-231 cell line and 1, 5, and 10 μM for the MCF-7 cell line.
(§2) Following the selection of cell lines for further study, the effects of all compounds on cell proliferation were evaluated on MCF-7 and MDA-MB-231 cell lines. Cells were seeded in 24-well plates and cultured as described above. Cells were treated with the compounds at concentrations 1, 5, and 10 μM, and 5, 15, and 30 μM for MCF-7 and MDA-MB-231 cell lines, respectively, for 24 h. Subsequently, 0.5 μCi [^3H]-thymidine was added for 4 h at 37 °C. Then, plates with cells were placed on the ice, the liquid was aspirated, and cells were washed twice with 1mL of 0.05 M Tris-HCl buffer comprising 0.11 M NaCl and precipitated by adding 1 mL per well of 5% trichloroacetic. After precipitation, the cells were dissolved with 1 mL of 0.1 M NaOH with 1% SDS (Sigma-Aldrich, St. Louis, MO, USA) at room temperature (RT). The cell lysates were transferred into scintillation vials containing 2 mL of scintillation fluid (Ultima Gold™ XR, PerkinElmer, MA, USA), and cell-associated radioactivity was measured using a Scintillation Counter 1900 TR, TRI-CARB (Packard, Perkin Elmer, Inc., San Jose, CA, USA). The [^3H]-thymidine uptake was expressed as a percentage of the control value.

MDA-MB-231 = assay: [3H]-thymidine incorporation assay; assay type: cell-based; settings: Homo sapiens; MDA-MB-231, 24 h of treatment
Experimental: as §1, §2

MALME-3M = assay: NCI-60 SRB screen; settings: 48 h
K-562 = settings: K-562, 48 h
TK-10 = assay: cells; settings: Homo sapiens, TK-10, 48 h; for CC50: read-out: LC50, TK-10, 48 h
CCRF-CEM = assay: cells; settings: Homo sapiens, 48 h
MDA-MB-435 [1] = assay: cells; settings: Homo sapiens, MDA-MB-435, 48 h; for CC50: read-out: LC50, MDA-MB-435, 48 h
NCI/ADR-RES = settings: 48 h
T-47D = assay: cells; settings: Homo sapiens, T47D, 48 h; for CC50: read-out: LC50
UO-31 [2] = assay: cells; settings: Homo sapiens, UO-31, 48 h; for CC50: read-out: LC50, UO-31, 48 h
Renal Cancer = Renal Cancer subpanel
Melanoma = assay: cells; settings: Homo sapiens; for GI50: read-out: MG_MID GI50; for CC50: read-out: MG_MID LC50
Breast cancer = assay: cells; settings: Homo sapiens; for GI50: read-out: MG_MID GI50; for CC50: read-out: MG_MID LC50
[3] = system: Non-small cell lung cancer; settings: Non-small cell lung cancer subpanel
SK-MEL-5 = assay: cells; settings: Homo sapiens, SK-MEL-5, 48 h; for CC50: read-out: LC50, SK-MEL-5, 48 h
MDA-MB-435 [4] = system: MDA-MB-435
UO-31 [5] = system: UO-31
Leukemia = assay: cells; settings: Homo sapiens; for GI50: read-out: MG_MID GI50; for CC50: read-out: MG_MID LC50
MOLT-4 = assay: cells; settings: Homo sapiens, MOLT-4, 48 h
OVCAR-5 = assay: NCI-60 SRB screen; settings: for GI50 / TGI: OVCAR-5, 48 h
PC-3 = assay: cells; settings: Homo sapiens, PC-3, 48 h
[6] = Homo sapiens, Malme-3M, read-out: LC50, MALME-3M, 48 h

Q: How did the GI50 (RPMI-8226) turn out when `O=C(O)CCCCCN1C(=O)/C(=C/C=C/c2ccc([N+](=O)[O-])o2)SC1=S` [14b, 6-((Z)-5-((E)-3-(5-nitrofuran-2-yl)allylidene)-4-oxo-2-thioxothiazolidin-3-yl)hexanoic acid] was run?
A: 330 nM

Q: What about the GI50 (NCI-H266; Homo sapiens, 48 h) of the same molecule?
A: 2210 nM

Q: And the CC50 (NCI-H266; Homo sapiens, 48 h)?
A: 90200 nM

Q: What about the GI50 (NCI-H266) of the same molecule?
A: 1960 nM

Q: What about the TGI (NCI-H266) of the same molecule?
A: 7060 nM and 7950 nM

Q: What about the IC50 (MCF-7) of the same molecule?
A: 2600 nM

Q: What about the IC50 (MDA-MB-231) of the same molecule?
A: 1600 nM

Q: What about the “growth GP” value (CAKI-1; CAKI-1, 10 μM, 48 h) of the same molecule?
A: -96.43%

Q: And the GI50 (CAKI-1; CAKI-1, 48 h)?
A: 1400 nM

Q: And the TGI (CAKI-1; CAKI-1, 48 h)?
A: 2090 nM and 2720 nM

Q: What about the GI50 (MALME-3M; Homo sapiens, Malme-3M) of the same molecule?
A: 280 nM

Q: And the CC50 (MALME-3M; [6])?
A: 2850 nM

Q: What about the GI50 (MALME-3M; MALME-3M) of the same molecule?
A: 240 nM

Q: What about the TGI (MALME-3M; MALME-3M) of the same molecule?
A: 760 nM and 720 nM

Q: What about the CC50 (MALME-3M; read-out: LC50, MALME-3M) of the same molecule?
A: 2720 nM

Q: And the GI50 (K-562)?
A: 280 nM

Q: What about the GI50 (TK-10) of the same molecule?
A: 1880 nM

Q: And the CC50 (TK-10)?
A: 5840 nM

Q: And the GI50 (CCRF-CEM)?
A: 180 nM

Q: And the GI50 (MDA-MB-435 [1])?
A: 420 nM

Q: And the CC50 (MDA-MB-435 [1])?
A: 4470 nM

Q: And the “growth GP” value (OVCAR-4; OVCAR-4, 10 μM, 48 h)?
A: -97.80%

Q: And the GI50 (OVCAR-4; OVCAR-4, 48 h)?
A: 1490 nM

Q: And the TGI (OVCAR-4; OVCAR-4, 48 h)?
A: 2690 nM and 2840 nM

Q: What about the GI50 (OVCAR-8; OVCAR-8, 48 h) of the same molecule?
A: 300 nM

Q: And the CC50 (OVCAR-8; human, 48 h)?
A: 9710 nM

Q: What about the GI50 (NCI/ADR-RES) of the same molecule?
A: 430 nM

Q: What about the TGI (NCI/ADR-RES) of the same molecule?
A: 1850 nM and 2390 nM

Q: And the CC50 (T-47D)?
A: > 100000 nM

Q: What about the GI50 (UO-31 [2]) of the same molecule?
A: 520 nM

Q: And the CC50 (UO-31 [2])?
A: 4310 nM

Q: What about the “MG_MID TGI” value (Renal Cancer) of the same molecule?
A: 4630 nM

Q: And the GI50 (Melanoma)?
A: 760 nM

Q: What about the CC50 (Melanoma) of the same molecule?
A: 4400 nM

Q: And the GI50 (Breast cancer)?
A: 650 nM

Q: What about the CC50 (Breast cancer) of the same molecule?
A: 36500 nM

Q: What about the “MG_MID TGI” value [3] of the same molecule?
A: 3850 nM

Q: And the CC50 (SK-MEL-5)?
A: 4600 nM

Q: And the “growth GP” value (HCC-2998; HCC-2998, 10 μM, 48 h)?
A: -95.72%

Q: And the GI50 (HCC-2998; HCC-2998, 48 h)?
A: 1600 nM

Q: And the TGI (HCC-2998; HCC-2998, 48 h)?
A: 3320 nM and 2980 nM

Q: And the GI50 (MDA-MB-435 [4]; MDA-MB-435, 48 h)?
A: 280 nM

Q: And the CC50 (MDA-MB-435 [4]; human, 48 h)?
A: 2740 nM

Q: What about the GI50 (UO-31 [5]; UO-31, 48 h) of the same molecule?
A: 670 nM

Q: What about the TGI (UO-31 [5]; UO-31, 48 h) of the same molecule?
A: 1850 nM and 2050 nM

Q: And the CC50 (UO-31 [5]; human, 48 h)?
A: 4890 nM

Q: What about the GI50 (Leukemia) of the same molecule?
A: 410 nM

Q: What about the CC50 (Leukemia) of the same molecule?
A: 64900 nM

Q: And the GI50 (SK-MEL-28; SK-MEL-28, 48 h)?
A: 1190 nM

Q: What about the TGI (SK-MEL-28; SK-MEL-28, 48 h) of the same molecule?
A: 3110 nM and 2710 nM

Q: And the CC50 (SK-MEL-28; human, 48 h)?
A: 6210 nM

Q: What about the GI50 (UACC-257; UACC-257, 48 h) of the same molecule?
A: 1400 nM

Q: What about the TGI (UACC-257; UACC-257, 48 h) of the same molecule?
A: 3160 nM and 3080 nM

Q: And the CC50 (UACC-257; human, 48 h)?
A: 6810 nM

Q: And the GI50 (MOLT-4)?
A: 370 nM

Q: What about the GI50 (OVCAR-5; Homo sapiens) of the same molecule?
A: 1850 nM

Q: What about the “growth GP” value (OVCAR-5; OVCAR-5, 10 μM, 48 h) of the same molecule?
A: -96.01%

Q: And the GI50 (OVCAR-5)?
A: 1560 nM

Q: What about the TGI (OVCAR-5) of the same molecule?
A: 3310 nM and 2970 nM

Q: What about the GI50 (SF-268; SF-268, 48 h) of the same molecule?
A: 1320 nM

Q: And the TGI (SF-268; SF-268, 48 h)?
A: 2710 nM and 3630 nM

Q: And the CC50 (SF-268; human, 48 h)?
A: 9990 nM

Q: Which results are given for `CCCC(C(=O)O)N1C(=O)/C(=C/C=C/c2ccc([N+](=O)[O-])o2)SC1=S` (centres unmarked) [4b, 2-((Z)-5-((E)-3-(5-Nitrofuran-2-yl)allylidene)-4-oxo-2-thioxothiazolidin-3-yl)pentanoic acid]?
A: GI50 (RPMI-8226): 1790 nM; CC50 (RPMI-8226; read-out: LC50): > 100000 nM; GI50 (NCI-H266; Homo sapiens, 48 h): 2620 nM; CC50 (NCI-H266; Homo sapiens, 48 h): 78900 nM; TGI (NCI-H266): 7830 nM; IC50 (MCF-7): 6130 nM; IC50 (MDA-MB-231): 3660 nM; TGI (CAKI-1; CAKI-1, 48 h): 3700 nM; GI50 (PC-3): 2870 nM; GI50 (MALME-3M; Homo sapiens, Malme-3M): 1800 nM; CC50 (MALME-3M; [6]): 6400 nM; TGI (MALME-3M; MALME-3M): 3400 nM; TGI (K-562): 14500 nM; GI50 (TK-10): 3270 nM; CC50 (TK-10): 27600 nM; GI50 (CCRF-CEM): 2270 nM; GI50 (MDA-MB-435 [1]): 1620 nM; CC50 (MDA-MB-435 [1]): 6770 nM; TGI (OVCAR-4; OVCAR-4, 48 h): 19100 nM; TGI (OVCAR-8; OVCAR-8, 48 h): 4640 nM; TGI (NCI/ADR-RES): 4960 nM; GI50 (T-47D; T-47D): 2200 nM; CC50 (T-47D): > 100000 nM; GI50 (UO-31 [2]): 1630 nM; CC50 (UO-31 [2]): 6780 nM; MG_MID TGI (Renal Cancer): 4250 nM; GI50 (Melanoma): 1670 nM; CC50 (Melanoma): 7320 nM; GI50 (Breast cancer): 1850 nM; CC50 (Breast cancer): 38300 nM; MG_MID TGI [3]: 6560 nM; GI50 (SK-MEL-5): 1470 nM; CC50 (SK-MEL-5): 5310 nM; TGI (HCC-2998; HCC-2998, 48 h): 3330 nM; TGI (MDA-MB-435 [4]; MDA-MB-435, 48 h): 3310 nM; TGI (UO-31 [5]; UO-31, 48 h): 3330 nM; GI50 (Leukemia): 2360 nM; CC50 (Leukemia): > 100000 nM; TGI (SK-MEL-28; SK-MEL-28, 48 h): 3510 nM; TGI (UACC-257; UACC-257, 48 h): 4820 nM; GI50 (MOLT-4): 3300 nM; CC50 (MOLT-4; read-out: LC50, MOLT-4, 48 h): > 100000 nM; GI50 (OVCAR-5; Homo sapiens): 1890 nM; TGI (OVCAR-5): 4320 nM; TGI (SF-268; SF-268, 48 h): 4450 nM
